In patent US20060257484A1, “Combination of tramadol and substances that comprise gabapentin” (priority 2005, published 2006):
Counter-ions that a name gives are not always drawn. Like-named read-outs stand apart in the source and are kept apart here.

What was measured:
[1] = Expected pharmacokinetic parameters in rat after tramadol HCl plus gabapentin (model)
Excerpt: In another modeling approach, the dose of gabapentin for humans can be evaluated in order to match the AUCinf ratio for gabapentin to tramadol and O-demthyltramadol in rat.

[2] = cited from earlier work
[3] = Expected human pharmacokinetic parameters at 200 mg tramadol per day (model matching rat AUCinf ratio); type: in vivo; settings: 200 mg tramadol per day for humans; for expected Cavg: gabapentin at 6.77 fold AUC ratio (daily dose 505 mg gabapentin equivalent)
Excerpt: Additional ranges can be determined for other species.

[4] = single oral dose 10 mg/kg tramadol HCl, 8 male Sprague-Dawley rats, cited from earlier work
[5] = steady state, cited from earlier work
Chung model = Chung model disclosed in Codd; cited from earlier work
[6] = single oral dose 25 mg/kg gabapentin, 6 male Sprague-Dawley rats; cited from earlier work
[7] = higher doses increase less than expected; cited from earlier work
[8] = single administration of 10 mg/kg tramadol HCl and 5 mg/kg gabapentin, assuming no pharmacokinetic interaction
[9] = after five days of tramadol 100 mg twice daily
[10] = Immediate Release Capsule, 50 mg four times daily
[11] = Modified Release Formulation, 200 mg once daily

Structure (SMILES) | expected Cmax [3] [ng/mL] | expected Cmin [3] [ng/mL] | expected Cavg [3] [ng/mL] | AUC0-24 [5, 10] [ng·h/mL] | Cmax [5, 10] [ng/mL] | Cmin [5, 10] [ng/mL] | AUC0-24 [5, 11] | Cmax [5, 11] | Cmin [5, 11] | other results
CN(C)CC1CCCCC1(O)c1cccc(O)c1 (racemic) [(±) M1, trans-O-demethyltramadol] | – | – | – | – | – | – | – | – | – | expected AUCinf [1, 8]: 523 ng·h/mL; expected Cmax [1, 8]: 331 ng/mL
COc1cccc(C2(O)CCCCC2CN(C)C)c1 (racemic) [tramadol] | – | – | – | – | – | – | – | – | – | AUC0-12 at steady state [2, 9]: 2970 ng·h/mL; Cmax at steady state [2, 9]: 414 ng/mL; Cmax and AUCinf versus dose ([2]; tramadol 400 mg given): proportional to the dose
CN(C)CC1CCCCC1(O)c1cccc(O)c1 (single isomer, unassigned; (+)) [(+) M1, trans-O-demethyltramadol] | 36 | 21 | 11 | 644 | 36 | 21 | 704.12 (327.09) ng * h/ml | 42 (18.4) ng/mL | 16.71 (10.41) ng/mL | AUCinf ([4]; 10 mg/kg): 16242 (2648) μg L^−1 min; Cmax ([4]; 10 mg/kg): 136 (32) μg/L; Tmax ([4]; 10 mg/kg): 34 (21) min
CN(C)CC1CCCCC1(O)c1cccc(O)c1 (single isomer, unassigned; (-)) [(−) M1, trans-O-demethyltramadol] | 43 | 22 | 12 | 690 | 43 | 22 | 745 (286) ng * h/ml | 46 (18) ng/mL | 16 (8) ng/mL | AUCinf ([4]; 10 mg/kg): 21178 (1987) μg L^−1 min; Cmax ([4]; 10 mg/kg): 195 (63) μg/L; Tmax ([4]; 10 mg/kg): 41 (24) min
COc1cccc(C2(O)CCCCC2CN(C)C)c1 (single isomer, unassigned; (-)) [(−)-trans-T] | 157 | 86 | 113 | 2719 | 157 | 86 | 3005 (1120) ng * h/ml | 199 (75) ng/mL | 62 (30) ng/mL | AUCinf [4]: 5257 µg·min/L; Cmax [4]: 74 µg/L; Tmax [4]: 22 min
COc1cccc([C@@]2(O)CCCC[C@@H]2CN(C)C)c1 [(+)-trans-T] | 190 | 111 | 143 | 3429 | 190 | 111 | 3763 (1275) ng * h/ml | 239 (81) ng/mL | 81 (36) ng/mL | AUCinf [4]: 21501 µg·min/L; Cmax [4]: 193 µg/L; Tmax [4]: 22 min
NCC1(CC(=O)O)CCCCC1 [Gabapentin, gabapentin] | – | – | 1890 | – | – | – | – | – | – | AUCinf for gabapentin relative to that for (±) tramadol and (±) O-demthyltramadol ([1]; Chung model (rat)): 6.77 fold; ED50 (Chung model): 439.50 mg/kg; AUCinf [6]: 32800 ng·h/mL; Cmax [6]: 6850 ng/mL; Tmax [6]: 108 min; dose up to which serum concentrations increase linearly [7]: up to 1800 mg/d
COc1cccc(C2(O)CCCCC2CN(C)C)c1 (stereo not shown) [tramadol HCl] | – | – | – | – | – | – | – | – | – | ED50 (Chung model): 94.47 mg/kg
